According to publication PMC6271282, “Playing with Opening and Closing of Heterocycles: Using the Cusmano-Ruccia Reaction to Develop a Novel Class of Oxadiazolothiazinones, Active as Calcium Channel Modulators and P-Glycoprotein Inhibitors” (Molecules, 2014):

What was measured:
[1] = biological target: T1, L-type Ca2+ channel (LTCC, Cav1.2) (Rattus norvegicus, UniProt P22002); experiment: whole-cell patch clamp, IBa(L); type: cell-based
T1 construct: gene Cacna1c; native channel in single rat tail main artery myocytes

[2] = biological target: T1, L-type Ca2+ channel (LTCC, Cav1.2); experiment: whole-cell patch clamp, IBa(L); also potentiates [3H]diltiazem binding in rat cardiomyocytes ([…]); type: cell-based

T1 sequence (P22002 whole entry): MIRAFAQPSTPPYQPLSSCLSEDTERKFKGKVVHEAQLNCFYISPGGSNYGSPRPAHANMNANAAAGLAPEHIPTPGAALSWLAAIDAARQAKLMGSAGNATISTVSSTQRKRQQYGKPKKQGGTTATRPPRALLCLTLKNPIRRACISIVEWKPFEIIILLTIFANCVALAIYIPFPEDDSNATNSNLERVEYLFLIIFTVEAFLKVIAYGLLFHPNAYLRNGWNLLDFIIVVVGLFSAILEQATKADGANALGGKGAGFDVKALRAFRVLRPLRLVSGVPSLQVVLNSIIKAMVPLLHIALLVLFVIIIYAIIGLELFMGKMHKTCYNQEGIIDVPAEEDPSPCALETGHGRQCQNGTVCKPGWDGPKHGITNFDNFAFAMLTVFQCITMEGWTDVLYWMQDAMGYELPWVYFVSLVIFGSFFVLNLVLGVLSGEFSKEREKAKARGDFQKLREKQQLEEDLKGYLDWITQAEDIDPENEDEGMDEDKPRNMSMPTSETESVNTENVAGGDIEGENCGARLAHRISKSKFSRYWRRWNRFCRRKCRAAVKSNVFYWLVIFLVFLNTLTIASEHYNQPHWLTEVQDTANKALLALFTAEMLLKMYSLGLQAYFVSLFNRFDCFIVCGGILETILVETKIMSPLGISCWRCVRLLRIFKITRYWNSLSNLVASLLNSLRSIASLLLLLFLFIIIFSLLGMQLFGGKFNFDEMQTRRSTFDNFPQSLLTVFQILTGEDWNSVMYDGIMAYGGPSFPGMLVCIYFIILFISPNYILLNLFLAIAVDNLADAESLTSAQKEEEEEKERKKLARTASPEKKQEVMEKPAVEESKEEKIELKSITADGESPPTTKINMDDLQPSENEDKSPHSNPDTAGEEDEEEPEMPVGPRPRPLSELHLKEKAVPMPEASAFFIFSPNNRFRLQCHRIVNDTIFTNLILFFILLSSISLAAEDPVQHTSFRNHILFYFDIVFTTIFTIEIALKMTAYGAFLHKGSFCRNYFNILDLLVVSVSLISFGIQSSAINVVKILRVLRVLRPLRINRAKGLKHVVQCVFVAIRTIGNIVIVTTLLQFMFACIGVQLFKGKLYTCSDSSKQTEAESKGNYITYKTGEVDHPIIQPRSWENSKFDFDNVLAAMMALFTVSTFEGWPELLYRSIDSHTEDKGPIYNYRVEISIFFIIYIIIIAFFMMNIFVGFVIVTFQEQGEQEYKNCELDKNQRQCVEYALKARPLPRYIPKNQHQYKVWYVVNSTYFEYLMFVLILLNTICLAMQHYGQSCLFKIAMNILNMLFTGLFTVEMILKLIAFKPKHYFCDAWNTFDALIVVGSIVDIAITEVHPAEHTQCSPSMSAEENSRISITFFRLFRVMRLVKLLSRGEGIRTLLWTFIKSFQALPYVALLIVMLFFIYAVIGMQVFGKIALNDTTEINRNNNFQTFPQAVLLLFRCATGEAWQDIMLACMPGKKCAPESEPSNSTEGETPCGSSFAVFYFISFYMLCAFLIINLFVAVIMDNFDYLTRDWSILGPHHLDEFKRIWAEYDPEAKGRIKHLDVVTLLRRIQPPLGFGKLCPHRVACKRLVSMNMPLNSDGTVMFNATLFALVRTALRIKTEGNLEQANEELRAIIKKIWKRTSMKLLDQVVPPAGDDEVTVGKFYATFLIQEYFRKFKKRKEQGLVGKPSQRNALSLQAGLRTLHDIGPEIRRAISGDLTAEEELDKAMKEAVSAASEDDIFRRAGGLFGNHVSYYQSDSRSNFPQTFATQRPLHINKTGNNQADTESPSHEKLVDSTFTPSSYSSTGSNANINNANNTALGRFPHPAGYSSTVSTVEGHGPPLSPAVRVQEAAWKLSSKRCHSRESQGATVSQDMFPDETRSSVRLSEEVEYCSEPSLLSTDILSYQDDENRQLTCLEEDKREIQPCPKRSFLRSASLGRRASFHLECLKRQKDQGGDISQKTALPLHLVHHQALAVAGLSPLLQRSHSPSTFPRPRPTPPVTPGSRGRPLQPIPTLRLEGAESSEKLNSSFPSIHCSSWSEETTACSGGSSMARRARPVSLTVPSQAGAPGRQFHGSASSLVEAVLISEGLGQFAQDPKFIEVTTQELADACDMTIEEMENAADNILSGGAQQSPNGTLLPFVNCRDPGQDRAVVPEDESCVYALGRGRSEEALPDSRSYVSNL

CC1=CSC(OCCN2CCCCC2)(c2ccc(Br)cc2)c2noc(=O)n21 (centres unmarked) [compound 32, 8-(4-Bromophenyl)-5-methyl-8-(2-piperidin-1-ylethoxy)-8H-[1,2,4]oxadiazolo[3,4-c][1,4]thiazin-3-one]
IC50 [1]: ~30 µM

O=c1onc2n1-c1ccc(Cl)cc1SC2(O)c1ccc(Br)cc1 (centres unmarked) [compound 30, 4-(4-Bromophenyl)-7-chloro-4-hydroxy-4H-[1,2,4]oxadiazolo[3,4-c][1,4]benzothiazin-1-one]
IC50 [2]: ~3 µM
